Experiment [1] has as its target T1, PDGFRb (Homo sapiens, UniProt P09619).
T1 construct: The kinase domain of PDGFRβ was assayed in 50 mM Hepes; purchased Invitrogen P3082
The experiment in a line: Inhibition of PDGFRb kinase in an in vitro biochemical assay (alphascreen). Particulars: tested at about 1 μM; read-out: PDGFR % inhibition at 1 μM. As for the experimental part: (§1) The IC50 values for the inhibition of RTKs were determined in the alphascreen format measuring the inhibition by compound of phosphate transfer to a substrate by the respective enzyme. Briefly, the respective RTK domain purchased as human recombinant protein (cKIT Upstate #14-559, PDGFRb Invitrogen #P3082) were incubated with serial dilutions of compound in the presence of substrate and ATP concentrations within 3 times the Km of the enzyme.
(§2) The kinase domain of cKIT was assayed in 50 mM Hepes, pH=7.5, 5 mM MgCl2, 10 mM MnCl2, 1 mM DTT, 0.1% BSA with 0.06 uM biotinylated peptide substrate (GGLFDDPSYVNVQNL-NH2) and 15 μM ATP (ATP KM apparent =15 μM). The kinase domain of PDGFRβ was assayed in 50 mM Hepes, pH=7.5, 20 mM MgCl2, 1 mM DTT, 0.1% BSA with 0.1 μM biotinylated peptide substrate (GGLFDDPSYVNVQNL-NH2) and 10 μM ATP (ATP KM apparent=25 μM). Reactions were incubated at room temperature for 3 to 4 hr and stopped with buffer (20 mM EDTA, 0.01% Tween-20 for both PDGFRβ and cKIT). Alphascreen PY20 beads were added to the stopped cKIT reactions and PY20 Ab/Protein A Alphascreen beads were added to the PDGFRβ stopped reactions. Both reactions were incubated overnight and read on the Alphascreen reader. The concentration of compound for 50% inhibition (IC50) was calculated employing non-linear regression using XL-Fit data analysis software. As a control compound, staurosporine is run in every assay and a Z′>0.5 is required to validate results.
On the technique in general: Bead proximity is the source of the signal in Alpha formats.

Experiment [2] concerns the target T2, cKIT (Homo sapiens, UniProt P10721).
T2 construct: The kinase domain of cKIT was assayed in 50 mM Hepes; purchased Upstate 14-559
The experiment in a line: Inhibition of cKIT kinase in an in vitro biochemical assay (alphascreen). Particulars: tested at about 1 μM. As for the experimental part: as §1, §2

The target of experiment [3] is T3, cytoplasmic domain of the human CSF-1R (Homo sapiens, UniProt P07333).
T3 construct: Recombinant protein corresponding to the cytoplasmic domain of the human CSF-1R; purchased Invitrogen Corporation, Carlsbad, Calif; U.S.A. PV3249
T3 sequence (P07333 539-972 limits assumed): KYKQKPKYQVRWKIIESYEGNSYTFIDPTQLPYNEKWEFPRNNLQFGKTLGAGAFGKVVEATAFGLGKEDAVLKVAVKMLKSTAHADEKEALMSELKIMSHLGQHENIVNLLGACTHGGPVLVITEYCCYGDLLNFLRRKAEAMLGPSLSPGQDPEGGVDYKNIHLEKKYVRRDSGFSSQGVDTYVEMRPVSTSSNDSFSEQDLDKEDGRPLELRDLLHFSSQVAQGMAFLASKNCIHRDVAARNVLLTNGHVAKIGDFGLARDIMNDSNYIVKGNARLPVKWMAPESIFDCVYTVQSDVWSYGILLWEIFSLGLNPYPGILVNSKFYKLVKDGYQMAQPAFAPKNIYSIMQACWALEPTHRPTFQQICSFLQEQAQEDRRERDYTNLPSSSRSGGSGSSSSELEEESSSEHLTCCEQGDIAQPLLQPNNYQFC
Kind of experiment: In vitro kinase assay for CSF-1R (AlphaScreen). Particulars: tested at about 1 μM. The experiment is classed as biochemical. As for the experimental part:
The kinase activity of various protein tyrosine kinases can be measured by providing ATP and a suitable peptide or protein tyrosine-containing substrate, and assaying the transfer of phosphate moiety to the tyrosine residue. Recombinant protein corresponding to the cytoplasmic domain of the human CSF-1R was purchased from Invitrogen Corporation, Carlsbad, Calif. U.S.A. (#PV3249). For each assay, test compounds were serially diluted, starting at 25 μM with 3 fold dilutions, in DMSO in 384 well plates then mixed with an appropriate kinase reaction buffer consisting of 50 mM Hepes, 5 mM MgCl2, 10 mM MnCl2, 0.1% BSA, pH 7.5, 1.0 mM dithiothreitol, 0.01% Tween 80 plus […]. Kinase protein and an appropriate biotinylated peptide substrate at 50 nM were added to give a final volume of 20 μL, reactions were incubated for 2 hours at room temperature and stopped by the addition of 10 μL of 45 mM EDTA, 50 mM Hepes pH 7.5. Added to the stopped reaction mix was 30 μL of PT66 Alphascreen beads (Perkin Elmer, Boston, Mass., U.S.A.). The reaction was incubated overnight and read on the Envision (Perkin Elmer). Phosphorylated peptide product was measured with the AlphaScreen system (Perkin Elmer) using acceptor beads coated with anti-phosphotyrosine antibody PT66 and donor beads coated with streptavidin that emit a fluorescent signal at the 520-620 nm emission wave length if in close proximity. The concentration of each compound for 50% inhibition (IC50) was calculated by non-linear regression using XL Fit data analysis software.
CSF-1R kinase was assayed in 50 mM Hepes pH 7.0, 5 mM MgCl2, 10 mM MnCl2, 1 mM DTT, 1 mg/mL BSA, 1.0 μM ATP, and 0.05 μM biotin-GGGGRPRAATF-NH2 (SEQ ID NO:2) peptide substrate. CSF-1R kinase was added at final concentration of 4 nM.

T1 sequence (P09619 600-962 limits assumed): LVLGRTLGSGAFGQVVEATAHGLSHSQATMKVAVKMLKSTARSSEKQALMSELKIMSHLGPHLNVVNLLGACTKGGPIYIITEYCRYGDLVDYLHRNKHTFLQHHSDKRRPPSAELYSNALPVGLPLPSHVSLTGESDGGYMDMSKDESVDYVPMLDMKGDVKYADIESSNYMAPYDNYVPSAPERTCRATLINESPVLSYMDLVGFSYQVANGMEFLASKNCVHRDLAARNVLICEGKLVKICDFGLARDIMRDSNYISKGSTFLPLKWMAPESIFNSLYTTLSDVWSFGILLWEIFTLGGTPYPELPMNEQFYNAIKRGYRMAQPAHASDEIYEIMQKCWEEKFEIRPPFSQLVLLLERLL
T2 sequence (P10721 589-937 limits assumed): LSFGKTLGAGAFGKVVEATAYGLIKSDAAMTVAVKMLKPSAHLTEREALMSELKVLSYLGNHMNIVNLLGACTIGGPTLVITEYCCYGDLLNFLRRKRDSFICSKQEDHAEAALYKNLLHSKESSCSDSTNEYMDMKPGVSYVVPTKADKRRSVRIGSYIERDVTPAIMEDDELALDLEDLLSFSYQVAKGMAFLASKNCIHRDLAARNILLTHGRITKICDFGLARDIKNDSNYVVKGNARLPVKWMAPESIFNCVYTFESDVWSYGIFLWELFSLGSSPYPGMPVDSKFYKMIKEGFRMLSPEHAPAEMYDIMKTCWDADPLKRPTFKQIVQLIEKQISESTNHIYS

Take `Cn1cc(-c2cc(Oc3ccc4nc(NCC5CCCCC5)ncc4c3)ccn2)cn1` [Cmpd 21, N-(cyclohexylmethyl)-6-(2-(1-methyl-1H-pyrazol-4-yl)pyridin-4-yloxy)quinazolin-2-amine]: the inhibition – broadly, the relative decrease from the control value, in per cent – at 1 µM in experiment [1] was determined as 91%; in experiment [2] it was 100%; in experiment [3], 100%.
As to `CNC(=O)c1cc(Oc2ccc3nc(NCc4ccc5c(c4)OCCO5)ncc3c2)ccn1` [Example 43, 4-(2-((2,3-dihydrobenzo[b][1,4]dioxin-6-yl)methylamino)quinazolin-6-yloxy)-N-methylpicolinamide], the values for the inhibition at 1 µM in experiment [1], in experiment [2] and in experiment [3] were less than 1%, 24% and 98%, respectively.
For the molecule `CC[C@H](C)[C@@H](CO)Nc1ncc2cc(Oc3ccnc(C(=O)NC)c3)ccc2n1` [Cmpd 14, 4-(2-((2S,3S)-1-hydroxy-3-methylpentan-2-ylamino)quinazolin-6-yloxy)-N-methylpicolinamide], the inhibition at 1 µM came out at 15% in experiment [1], 19% in experiment [2] and 99% in experiment [3].
The corresponding values for `CNC(=O)c1cc(Oc2ccc3nc(NCCN4CCOCC4)ncc3c2)ccn1` [Example 35, N-methyl-4-(2-(2-morpholinoethylamino)quinazolin-6-yloxy)picolinamide] are less than 1%, 7% and 71%.
The corresponding values for `CNC(=O)c1cc(Oc2ccc3nc(Nc4ccccc4OCCO)ncc3c2)ccn1` [Example 70, 4-(2-(2-(2-hydroxyethoxy)phenylamino)quinazolin-6-yloxy)-N-methylpicolinamide] are 13%, 11% and 95%.
Consider `Nc1cc(Oc2ccc3nc(Nc4ccccc4N4CCOCC4)ncc3c2)ccn1` [Example 29, 6-(2-aminopyridin-4-yloxy)-N-(2-morpholinophenyl)quinazolin-2-amine], for which the inhibition at 1 µM came to 1% in experiment [1], 9% in experiment [2] and 90% in experiment [3].
For the molecule `CCOc1ccccc1Nc1ncc2cc(Oc3ccnc(C(=O)NC)c3)ccc2n1` [Example 45, 4-(2-(2-ethoxyphenylamino)quinazolin-6-yloxy)-N-methylpicolinamide], the inhibition at 1 µM in experiment [1] worked out at 12%; in experiment [2], 38%; in experiment [3], 99%.
Taken in the same sequence, the figures for `CCOC(=O)N1CCC(Nc2ncc3cc(Oc4ccnc(C(=O)NC)c4)ccc3n2)CC1` [Example 56, ethyl 4-(6-(2-(methylcarbamoyl)pyridin-4-yloxy)quinazolin-2-ylamino)piperidine-1-carboxylate] were less than 1%, 17% and 84%.
For `CNC(=O)c1cc(Oc2ccc3nc(N[C@@H](C)c4ccccc4)ncc3c2)ccn1` [Example 64, (S)-N-methyl-4-(2-(1-phenylethylamino)quinazolin-6-yloxy)picolinamide], the figures for the inhibition at 1 µM in experiment [1], in experiment [2] and in experiment [3] were 7%, 16% and 99%, respectively.
Taken in the same sequence, the figures for `CNC(=O)c1cc(Oc2ccc3nc(N[C@H](C)C4CCCCC4)[nH]c3c2)ccn1` [Example 83, (R)-4-(2-(1-cyclohexylethylamino)-1H-benzo[d]imidazol-6-yloxy)-N-methylpicolinamide] were 100%, 100% and 100%.
Taken in the same sequence, the figures for `CNC(=O)c1cc(Oc2ccc3nc(NCC4(N5CCOCC5)CCCCC4)ncc3c2)ccn1` [Example 37, N-methyl-4-(2-((1-morpholinocyclohexyl)methylamino)quinazolin-6-yloxy)picolinamide] were less than 1%, 16% and 99%.
Taken in the same sequence, the figures for `CNC(=O)c1cc(Oc2ccc3sc(N[C@@H]4CCCC[C@H]4O)nc3c2)ccn1` [Example 81, 4-(2-((1R,2R)-2-hydroxycyclohexylamino)benzo[d]thiazol-5-yloxy)-N-methylpicolinamide] were 71%, 39% and 99%.
Regarding `CNC(=O)c1cc(Oc2ccc3nc(N[C@@H]4c5ccccc5C[C@@H]4O)ncc3c2)ccn1` [Cmpd 19, 4-(2-((1R,2S)-2-hydroxy-2,3-dihydro-1H-inden-1-ylamino)quinazolin-6-yloxy)-N-methylpicolinamide], the inhibition at 1 µM is 3% in experiment [1], 30% in experiment [2] and 100% in experiment [3].
Taken in the same sequence, the figures for `CNC(=O)c1cc(Oc2ccc3nc(Nc4ccccc4OCCOC)ncc3c2)ccn1` [Example 69, 4-(2-(2-(2-methoxyethoxy)phenylamino)quinazolin-6-yloxy)-N-methylpicolinamide] were 5%, 17% and 99%.
The corresponding values for `OC(c1ccncc1)c1ccc2nc(NCC3CCCCC3)sc2c1` (stereo not drawn) [Example 76, (2-(cyclohexylmethylamino)benzo [d]thiazol-6-yl)(pyridin-4-yl)methanol] are 27%, 49% and 65%.
The corresponding values for `CNC(=O)c1cc(Oc2ccc3nc(Nc4cccc5c4OC(F)(F)O5)ncc3c2)ccn1` [Example 68, 4-(2-(2,2-difluorobenzo[d][1,3]dioxol-4-ylamino)quinazolin-6-yloxy)-N-methylpicolinamide] are 2%, 10% and 98%.
As to `CNC(=O)c1cc(Oc2ccc3nc(NC(=O)NC4CCCCC4)ncc3c2)ccn1` [Example 60, 4-(2-(3-cyclohexylureido)quinazolin-6-yloxy)-N-methylpicolinamide], the figures for the inhibition at 1 µM in experiment [1], in experiment [2] and in experiment [3] were 12%, 17% and 97%, respectively.
The corresponding values for `CNC(=O)c1cc(Oc2ccc3nc(Nc4ccccc4OC)ncc3c2)ccn1` [Example 44, 4-(2-(2-methoxyphenylamino)quinazolin-6-yloxy)-N-methylpicolinamide] are 3%, 44% and 99%.
Taken in the same sequence, the figures for `CNC(=O)c1cc(Oc2ccc3nc(NC4CCOCC4)ncc3c2)ccn1` [Example 58, N-methyl-4-(2-(tetrahydro-2H-pyran-4-ylamino)quinazolin-6-yloxy)picolinamide] were less than 1%, 8% and 65%.

The record behind these values is patent US20100261679A1 (priority 2007, published 2010).
